According to patent US9938335B2, “Glucagon and GLP-1 co-agonist compounds” (Eli Lilly and Company, priority 2015, dated 2018):
Values after ≈ are worked out from the molar mass of the structure shown. Like-named read-outs stand apart in the source and are kept apart here. Marks after values point to notes of the source that are not given here.

How the values were obtained:
[1] = target: T1, hGLP-1-R (Homo sapiens, UniProt P43220); experiment: hGLP-1R Binding Assay (SPA radioligand competition, 293HEK membranes); design: expressed in transfected cells; host or cells: 293HEK, stably transfected with plasmid phD, Hygromycin-selected; crude plasma membranes; settings: read-out: Ki, nM ± SEM at the hGLP-1-R
T1 sequence (P43220 24-463): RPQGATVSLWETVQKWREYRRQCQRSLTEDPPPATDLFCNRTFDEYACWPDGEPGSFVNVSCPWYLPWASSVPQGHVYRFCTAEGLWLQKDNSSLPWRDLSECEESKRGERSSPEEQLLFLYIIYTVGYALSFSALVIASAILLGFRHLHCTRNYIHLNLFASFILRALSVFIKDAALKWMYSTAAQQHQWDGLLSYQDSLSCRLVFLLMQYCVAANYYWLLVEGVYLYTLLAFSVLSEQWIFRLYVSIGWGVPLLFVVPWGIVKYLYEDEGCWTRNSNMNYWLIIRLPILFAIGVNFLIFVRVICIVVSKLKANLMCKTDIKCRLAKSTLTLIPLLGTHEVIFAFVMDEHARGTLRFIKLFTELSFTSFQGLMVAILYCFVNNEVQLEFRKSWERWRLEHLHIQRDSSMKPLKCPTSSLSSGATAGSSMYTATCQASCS

[2] = target: T1, hGLP-1-R; experiment: Functional hGLP-1-R assay (cAMP HTRF, HEK-293 clonal cell line); format: cell-based; design: expressed in transfected cells; host or cells: HEK-293 clonal cell line over-expressing the receptor; settings: for Emax: HEK293; for EC50: cAMP, 60 minute incubation, 0.25% FBS, 0.05% BSA, geometric mean, read-out: Human GLP-1-R EC50, nM ± SEM (n)
Procedure: After a 60 minute incubation at room temperature, the resulting increase in intracellular cAMP (adenosine 3′,5′-cyclic monophosphate) is quantitatively determined using the CisBio cAMP Dynamic 2 HTRF Assay Kit (62AM4PEJ). cAMP levels within the cell are detected by adding the cAMP-d2 conjugate in cell lysis buffer (20 μl) followed by the antibody anti-cAMP-Eu^3+-Cryptate, also in cell lysis buffer (20 μl).
A relative EC50 value and percent top (Emax) are derived by non-linear regression analysis using the percent maximal response vs. the concentration of peptide added, fitted to a four-parameter logistic equation (Genedata Screener®).
Means for EC50 are expressed as Geometric means±standard error of the mean (SEM) with the number of replicates (n) indicated in parenthesis. Means for Emax are expressed as the arithmetic mean±standard error. ND signifies that agonist activity was not detected.

[3] = test system: DIO mice (C57BL/6); experiment: Chronic treatment in DIO mice (body weight, fat, food intake); format: in vivo, mouse
Procedure: The effects on food intake and body weight/fat are evaluated in DIO mice. Five to six months old DIO mice (C57BL/6) from Taconic Biosciences are used in this study. Animals are individually housed in a temperature-controlled (24° C.) facility with a 12 hour light/dark cycle (lights on 6:00), and free access to food and water. The mice are acclimated to the facility for two weeks. The day before the study start, fat mass is measured by nuclear magnetic resonance (NMR) using an Echo Medical System (Houston, Tex.) instrument. The mice are randomized to treatment groups (N=7/group) based on body weight and fat mass so each group had similar starting mean body weight and fat mass. […] SC injections are made on Day 1, 4, 7, 10, and 13. Body weight and food intake are measured right before each injection throughout the study. Percent changes in body weight are calculated as follows: […]
At the completion of the study, total fat mass is measured again by NMR. Statistics are analyzed using ANOVA with Dunnett's comparison by JMP 6. Significance is denoted at p≤0.05 vs. vehicle.

[4] = test system: DIO mice (C57BL/6); experiment: Glycemic control in DIO mice; format: in vivo, mouse; settings: for 44 hours Glucose AUC (% of Vehicle): OGTT 44 hours post-injection; for 44 hours Glucose AUC (% of Vehicle) / 78 hours Glucose AUC (% of Vehicle): 25 nmol/kg sc; for 78 hours Glucose AUC (% of Vehicle): OGTT 78 hours post-injection; for glucose excursions post an oral glucose challenge: OGTTs at 44 and 78 hours post injection, 25 nmol/kg; for Blood glucose (mg/dL) post-injection, Mean: male DIO mice, 25 nmol/kg sc once
Procedure: Five to six months old male DIO mice (C57BL/6) from Taconic Biosciences are used in this study. Animals are individually housed in a temperature-controlled (24° C.) facility with a 12 hour light/dark cycle (lights on 6:00), and free access to food and water. After two weeks acclimation to the facility, the mice are randomized to treatment groups (n=7/group) based on their body weight and blood glucose. Mice are injected subcutaneously once with vehicle or compounds (25 nmol/kg). Blood glucose is monitored 2 and 8 hours post-injection and then once a day at 08:00 for 4 days. OGTTs are performed at 44 and 78 hours post the peptide injection. Statistics are analyzed using ANOVA with Dunnett's comparison by JMP 6. Significance is denoted at p≤0.05 vs vehicle.

[5] = target: hGcg-R (Homo sapiens, UniProt P47871); experiment: hGcg-R Binding Assay (SPA radioligand competition, 293HEK membranes); settings: read-out: Ki, nM ± SEM at the hGcg-R
hGcg-R, sequence (P47871 26-477): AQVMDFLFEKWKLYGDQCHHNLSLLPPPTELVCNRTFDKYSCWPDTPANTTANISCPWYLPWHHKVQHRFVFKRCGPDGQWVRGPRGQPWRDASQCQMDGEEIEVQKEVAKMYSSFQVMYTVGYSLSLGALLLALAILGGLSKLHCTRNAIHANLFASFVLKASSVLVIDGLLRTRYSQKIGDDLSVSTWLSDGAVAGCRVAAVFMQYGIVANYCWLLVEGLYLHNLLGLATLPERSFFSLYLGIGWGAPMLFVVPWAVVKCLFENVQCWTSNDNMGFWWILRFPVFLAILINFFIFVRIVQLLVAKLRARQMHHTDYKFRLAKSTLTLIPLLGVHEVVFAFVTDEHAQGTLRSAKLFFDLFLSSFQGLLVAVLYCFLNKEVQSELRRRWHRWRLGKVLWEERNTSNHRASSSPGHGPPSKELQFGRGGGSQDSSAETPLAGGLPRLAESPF

[6] = test system: DIO mice (C57BL/6); experiment: Acute treatment in DIO mice (PCSK9, FGF-21, cholesterol); format: in vivo, mouse; settings: 30 nmol/kg sc, 16 hours post dose
Procedure: In order to investigate metabolic pathways involved with the treatment of compounds of the present invention independent of weight loss, compounds are tested in DIO mice (C57BL/6) acutely. The mice used are three to four months old on a high fat diet for at least 4 weeks. Animals are individually housed in a temperature-controlled (24° C.) facility with a 12 hour light/dark cycle (lights on 6:00), and free access to food and water. Vehicle or testing compounds were administered to mice by subcutaneous injection at 16:00 the day before the study day. Animals were sacrificed 16 hours later to collect blood via cardia puncture. Statistics are analyzed using ANOVA with Dunnett's comparison for JMP-6. Significance is denoted at p≤0.05 vs vehicle.
Food intake was decreased to a similar level in all treatment groups, which may indicate that changes in cholesterol, PCSK9 and FGF-21 are food-intake independent.

[7] = Solubility (RP-HPLC and HPLC-SEC, 1 week at 4° C.); format: physicochemical; settings: for HMW species formation by SEC-HPLC: 1 week at 4° C.; for visible precipitation or phase separation: after 1 week storage at 4° C.
Procedure: Solubility of compounds of the present invention is measured in an Agilent 1100 HPLC, an Agilent 1200 HPLC and a Nanodrop 2000. The following HPLC columns are used:
(a) RP-HPLC: Waters Symmetry Shield C18, 3.6 um, 4.6×100 mm
(b) HPLC-SEC: Tosoh Biosciences, TSK2000SWXL […]
All peptide concentrations are made at 10 mg/mL in the following:
(a) 10 mM Tris pH 8.0+3 mg/mL m-cresol
(b) 10 mM Tris pH 8.0+3 mg/mL m-cresol+150 mM NaCl
(c) 10 mM Tris pH 8.0+3 mg/mL m-cresol+0.02% Tween-20
5 mL of 10 mg/mL peptide dissolved in 10 mM Tris at pH 8.0 is concentrated to approximately 20 mg/mL using Amicon-ultra 3 kDa MWCO devices. The solution is filtered using Millivex 0.22 μM filters (PVDF membrane) and the final concentration is measured by the NanoDrop spectrometer. This stock solution is used to formulate to the final conditions stated above using 3× m-cresol, 10× NaCl, and 100× Tween-20 stock solutions. A 10 mg/mL PBS solution is also prepared by dissolving directly at 5 mg/mL and concentrating using Amicon-ultra 3 kDa MWCO devices.
Each solution is placed in a refrigerator at 4° C. for 1 week, with analysis by RP-HPLC to assess concentration and HPLC-SEC to assess HMW species formation. Analyses completed at T-0 week and T-1 week.
The solubility of Compounds 1-4 was measured essentially as described in this assay.

[8] = 15 nmol/kg sc every three days for 15 days
[9] = 30 nmol/kg sc every three days for 15 days
[10] = 10 mM Tris pH 8.0 + 3 mg/mL m-cresol + 0.02% Tween-20, Tris pH 8 + 3 mg/mL m-cresol + 0.02% Tween-20
[11] = 10 mM Tris pH 8.0 + 3 mg/mL m-cresol + 150 mM NaCl, Tris pH 8 + 3 mg/mL m-cresol + 150 mm NaCl
[12] = 10 mM Tris pH 8.0 + 3 mg/mL m-cresol, Tris pH 8 + 3 mg/mL m-cresol
[13] = PBS pH 7.4, pH 7.4, read-out: solubility in PBS, pH 7.4

Structure (SMILES) | Ki [1] [nM] | Emax [2] [%] | EC50 [2] [nM] | Body Fat (% change vs. vehicle from Day 1) [3, 8] | Body Weight (% change vs. vehicle from Day 1) [3, 8] | Body Fat (% change vs. vehicle from Day 1) [3, 9] | Body Weight (% change vs. vehicle from Day 1) [3, 9] | 44 hours Glucose AUC (% of Vehicle) [4] | 78 hours Glucose AUC (% of Vehicle) [4] | glucose excursions post an oral glucose challenge [4] | Blood glucose (mg/dL) post-injection, Mean ([4]; 2 hours post-injection) [mg/dL] | Blood glucose (mg/dL) post-injection, Mean ([4]; 8 hours post-injection) [mg/dL] | Blood glucose (mg/dL) post-injection, Mean ([4]; 24 hours post-injection) [mg/dL] | Blood glucose (mg/dL) post-injection, Mean ([4]; 48 hours post-injection) [mg/dL] | Blood glucose (mg/dL) post-injection, Mean ([4]; 72 hours post-injection) [mg/dL] | Blood glucose (mg/dL) post-injection, Mean ([4]; 96 hours post-injection) [mg/dL] | Ki [5] [nM] | Cholesterol (% of vehicle) [6] | FGF-21 (% of vehicle) [6] | PCSK9 (% of vehicle) [6] | also measured
CC(C)C[C@H](NC(=O)[C@H](CC(C)C)NC(=O)[C@H](Cc1c[nH]c2ccccc12)NC(=O)[C@H](CCC(=O)O)NC(=O)[C@@H](NC(=O)[C@H](Cc1ccccc1)NC(=O)[C@H](CCC(=O)O)NC(=O)[C@H](CCCCNC(=O)COCCOCCNC(=O)COCCOCCNC(=O)CC[C@H](NC(=O)CCCCCCCCCCCCCCCCC(=O)O)C(=O)O)NC(=O)[C@H](C)NC(=O)[C@H](CCCCN)NC(=O)[C@H](CCCCN)NC(=O)[C@H](CCC(=O)O)NC(=O)[C@H](CC(=O)O)NC(=O)[C@H](CC(C)C)NC(=O)[C@H](Cc1ccc(O)cc1)NC(=O)[C@H](CCCCN)NC(=O)[C@H](CO)NC(=O)[C@H](Cc1ccc(O)cc1)NC(=O)[C@H](CC(=O)O)NC(=O)[C@H](CO)NC(=O)[C@@H](NC(=O)[C@H](Cc1ccccc1)NC(=O)[C@@H](NC(=O)CNC(=O)[C@H](CCC(N)=O)NC(=O)C(C)(C)NC(=O)[C@@H](N)Cc1c[nH]cn1)[C@@H](C)O)[C@@H](C)O)C(C)C)C(=O)N[C@@H](CCC(=O)O)C(=O)NCC(=O)NCC(=O)N1CCC[C@H]1C(=O)N[C@@H](CO)C(=O)N[C@@H](CO)C(=O)NCC(N)=O [Compound 1] | 23 ± 5.5 | 104 ± 7 | 23.9 ± 4.5 | −49* % | −19* % | −66* % | −29* % | 42* % of Vehicle | 90 % of Vehicle | lower glucose excursions post an oral glucose challenge at 44 hour | 168.5 | 79.4 | 90.6 | 101.9 | 113.4 | 150.0 | 14.6 ± 4.4 | 60.9* % of vehicle | 1770* % of vehicle | 14.6* % of vehicle | solubility at 1 week [7, 10]: 10000 µg/mL; solubility at 1 week [7, 11]: 10000 µg/mL; solubility at 1 week [7, 12]: 10000 µg/mL; HMW species formation by SEC-HPLC [7]: No observed HMW species formation by SEC-HPLC;; solubility at 1 week [7, 13]: 10000 µg/mL (≈ 2210 µM); visible precipitation or phase separation [7]: No visible precipitation or phase separation observed after 1 week
CC(C)C[C@H](NC(=O)[C@H](CC(C)C)NC(=O)[C@H](Cc1c[nH]c2ccccc12)NC(=O)[C@H](CCC(=O)O)NC(=O)[C@@H](NC(=O)[C@H](Cc1ccccc1)NC(=O)[C@H](CCC(=O)O)NC(=O)[C@H](CCCCNC(=O)COCCOCCNC(=O)COCCOCCNC(=O)CC[C@H](NC(=O)CCCCCCCCCCCCCCCCCCC(=O)O)C(=O)O)NC(=O)[C@H](C)NC(=O)[C@H](CCCCN)NC(=O)[C@H](CCCCN)NC(=O)[C@H](CCC(=O)O)NC(=O)[C@H](CC(=O)O)NC(=O)[C@H](CC(C)C)NC(=O)[C@H](Cc1ccc(O)cc1)NC(=O)[C@H](CCCCN)NC(=O)[C@H](CO)NC(=O)[C@H](Cc1ccc(O)cc1)NC(=O)[C@H](CC(=O)O)NC(=O)[C@H](CO)NC(=O)[C@@H](NC(=O)[C@H](Cc1ccccc1)NC(=O)[C@@H](NC(=O)CNC(=O)[C@H](CCC(N)=O)NC(=O)C(C)(C)NC(=O)[C@@H](N)Cc1c[nH]cn1)[C@@H](C)O)[C@@H](C)O)C(C)C)C(=O)N[C@@H](CCC(=O)O)C(=O)NCC(=O)NCC(=O)N1CCC[C@H]1C(=O)N[C@@H](CO)C(=O)N[C@@H](CO)C(=O)NCC(N)=O [Compound 2] | 28.6 ± 4.8 | 107 ± 7 | 83.1 ± 16.8 | −43* % | −19* % | −70* % | −33* % | 39* % of Vehicle | 66* % of Vehicle | lower glucose excursions post an oral glucose challenge at both time points | 112.7 | 87.4 | 101.1 | 101.3 | 97.6 | 115.0 | 17.7 ± 5 | 80.6* % of vehicle | 465* % of vehicle | 12.8* % of vehicle | solubility at 1 week [7, 10]: 10000 µg/mL; solubility at 1 week [7, 11]: 10000 µg/mL; solubility at 1 week [7, 12]: 10000 µg/mL; HMW species formation by SEC-HPLC [7]: No observed HMW species formation by SEC-HPLC;; solubility at 1 week [7, 13]: 10000 µg/mL (≈ 2190 µM); visible precipitation or phase separation [7]: No visible precipitation or phase separation observed after 1 week
